The target in one experiment is PD-1/PD-L1 (Homo sapiens, UniProt Q9NZQ7). Nature of the experiment: PD-1/PD-L1 biochemical protein-protein interaction assay (ALPHA). The experiment is classed as binding. To be noted: 0.3 nM His tagged PD-L1, 2.5 nM biotinylated Fc-PD-1, 60 minutes at 25° C., read-out: IC50 PD-L1-PD-1 Alpha IC50-mono PD-L1-fcP-D1. Summed up:
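ALPHA bead proximity assay of extracellular domains: 0.3 nM His-PD-L1 with 2.5 nM biotinylated Fc-PD-1 in 25 mM Hepes pH 7.4, 150 mM NaCl, 3.4 mM EDTA, 0.005% Tween 20, 0.01% BSA, 60 min at 25 °C. Anti-His acceptor and streptavidin donor beads added; IC50 from four-parameter fit of signal loss.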

For a further experiment, the target named is T1, PD-1/PD-L1 interaction (Homo sapiens, UniProt Q9NZQ7).
T1 construct: expressed in transfected cells; host or cells: CHO cells (aAPC-PD-L1) co-cultured with Jurkat cells overexpressing PD-1 and an NFAT-luciferase reporter
Nature of the experiment: PD-1/PD-L1 NFAT reporter co-culture assay. The experiment is classed as cell-based. To be noted: Jurkat PD-1 NFAT-luciferase cells co-cultured with aAPC-PD-L1 CHO cells, 6 hrs at 37° C.; read-out: EC50 NFAT Luciferase. A digest of the protocol:
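Restoration of TCR-driven NFAT luciferase signal: 6 h, 37 °C co-culture of PD-1 Jurkat reporter cells (pre-mixed with compound) on overnight-seeded PD-L1/anti-CD3 CHO monolayer. ONE-Glo luminescence; dose-response fitted to four-parameter equation for EC50.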

The target of another experiment is T2, PD-L1 (Homo sapiens, UniProt Q9NZQ7).
T2 construct: determine if they can specifically dimerize the extracellular domains of PD-L1
Nature of the experiment: PD-L1/PD-L1 dimerization biochemical protein-protein interaction assay (ALPHA). The experiment is classed as binding. Conditions: compound-induced PD-L1 dimerization, head prints '1 nM' (0.5 nM His-tagged PD-L1 and 0.5 nM FLAG-tagged PD-L1), read-out: AC50 PDL1 Dimer Alpha 1 nM. Summed up: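 ALPHA proximity assay of compound-induced dimerization of 0.5 nM His-tagged and 0.5 nM FLAG-tagged PD-L1 extracellular domains in Hepes pH 7.4 buffer, 2 h at 25 °C. Anti-His acceptor then anti-FLAG donor beads, 60 min each; AC50 from four-parameter fit.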

pEC50, pIC50: −log10 of the molar value.

T1 sequence (Q9NZQ7 19-290): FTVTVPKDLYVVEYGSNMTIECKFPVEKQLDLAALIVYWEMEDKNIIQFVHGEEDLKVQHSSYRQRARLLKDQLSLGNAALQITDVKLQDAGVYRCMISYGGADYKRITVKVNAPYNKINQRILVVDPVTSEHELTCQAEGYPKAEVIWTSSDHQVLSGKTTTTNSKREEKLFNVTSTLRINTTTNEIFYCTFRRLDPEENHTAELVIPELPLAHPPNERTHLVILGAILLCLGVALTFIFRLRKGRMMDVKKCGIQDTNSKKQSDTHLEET
PD-1/PD-L1, sequence (Q9NZQ7 19-238 limits assumed): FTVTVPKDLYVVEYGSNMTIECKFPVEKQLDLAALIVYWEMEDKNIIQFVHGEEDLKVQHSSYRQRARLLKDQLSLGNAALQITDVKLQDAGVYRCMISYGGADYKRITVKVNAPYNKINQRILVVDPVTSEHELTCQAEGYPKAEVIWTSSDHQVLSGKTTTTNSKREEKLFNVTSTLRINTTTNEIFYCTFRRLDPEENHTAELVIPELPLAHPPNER
T2 sequence (Q9NZQ7 19-238 limits assumed): as above
T2 sequence (Q9NZQ7 19-238 limits assumed): as above

Consider `COc1nc(-c2cccc(-c3cccc(N4Cc5cc(CN6CC7(CCC(=O)N7)C6)ccc5C4=O)c3Cl)c2Cl)ccc1CN1CC2(CCC(=O)N2)C1` [Example 631], for which, on PD-1/PD-L1, the pIC50 is 9.89. Besides, the pEC50 at PD-1/PD-L1 interaction is no more than 4.30. For the same molecule, the AC50 on PD-L1 came to 441 nM.
With `COc1cc(-c2cccc(-c3cccc4c3CC[C@@H]4Oc3nc(OC)c(CN[C@@](C)(CO)C(=O)O)cc3Br)c2Cl)ccc1C1=NCCN1` [Example 780], the pIC50 on PD-1/PD-L1 is 10.19. Also, on PD-1/PD-L1 interaction, the pEC50 was 7.30. Besides, the AC50 on PD-L1 was 14.4 nM.
As for `CC(C)(NCc1cc(Br)c(OCc2cccc(-c3cccc(-c4ccc5c(c4)C[C@@H](N)C5)c3Cl)c2Cl)nc1OCc1cncc(C#N)c1)C(=O)O` [Example 551], at PD-1/PD-L1, the pIC50 was 10.19. Also, the pEC50 on PD-1/PD-L1 interaction is 7.00. Also, the AC50 at PD-L1 is 12.4 nM.
Take `COc1nc(-c2cccc(-c3cccc4c3CC[C@@H]4Oc3nc(OCc4cncc(C#N)c4)c(CN[C@@](C)(CO)C(=O)O)cc3Cl)c2Br)ccc1C1=NCCN1` [Example 702]: on PD-1/PD-L1, the pIC50 is 9.50. The pEC50 on PD-1/PD-L1 interaction is 5.88. In addition, the AC50 on PD-L1 was found to be 332 nM.
Turning to `COc1nc(-c2cccc(-c3cccc4c3CC[C@@H]4Oc3nc(OC)c(CN4CC[C@H](C(=O)O)C4)cc3Cl)c2Cl)ccc1CN1CC(CO)C1` [Example 704], the pIC50 at PD-1/PD-L1 is 10.19. In addition, the pEC50 at PD-1/PD-L1 interaction was 7.96. Further, the AC50 on PD-L1 was 66.8 nM.
The matching figures for `COc1nc(-c2cccc(-c3cccc(COc4nc(OCc5cncc(C#N)c5)c(CN5CCCC[C@H]5C(=O)O)cc4Br)c3Cl)c2Cl)ccc1C1=NCCN1` [Example 543]: 10.15, 6.73 and 49.7 nM.
The matching figures for `COc1nc(O[C@H]2CCc3c(-c4cccc(-c5ccc6c(c5)C[C@@H](N)C6)c4Cl)cccc32)ccc1CN[C@@](C)(CO)C(=O)O` [Example 783]: 9.59, 5.52 and 823 nM.
As for `COc1nc(-c2cccc(-c3cccc4c3CC[C@@H]4Oc3nc(OC)c(CN4C[C@H](C(=O)O)[C@@H](C(C)C)C4)cc3Cl)c2Cl)ccc1CNC[C@@H]1CCC(=O)N1` [Example 760], the pIC50 at PD-1/PD-L1 is 10.19. Besides, at PD-1/PD-L1 interaction, the pEC50 is 7.20. In addition, the AC50 on PD-L1 worked out at 44.2 nM.
Regarding `Cc1c(COc2cc(OCc3cncc(C#N)c3)c(CN[C@@](C)(CO)C(=O)O)cc2Cl)cccc1-c1cccc(-c2ccc(OCCNC[C@@H]3CCC(=O)N3)cc2)c1C` [Example 517], the pIC50 on PD-1/PD-L1 was 10.19. In addition, on PD-1/PD-L1 interaction, the pEC50 is 6.81. Moreover, at PD-L1, the AC50 amounted to 91.7 nM.
The matching figures for `C[C@@](CO)(NCc1cc(Cl)c(O[C@H]2CCc3c(-c4cccc5c4CC[C@@H]5Oc4ccc(CN5CC[C@@H](O)C5)c(OCc5cncc(S(C)(=O)=O)c5)n4)cccc32)nc1OCc1cncc(S(C)(=O)=O)c1)C(=O)O` [Example 687]: 9.18, 6.22 and 3100 nM.
For the molecule `Cc1c(COc2cc(OCc3cncc(C#N)c3)c(CN[C@@](C)(CO)C(=O)O)cc2Cl)cccc1-c1cccc(-c2ccc(C3=NCCN3)cc2)c1C` [Example 503], the pIC50 at PD-1/PD-L1 is 10.19. Moreover, the pEC50 at PD-1/PD-L1 interaction was 7.09. Further, the AC50 at PD-L1 turned out to be 42.1 nM.
With `COc1nc(-c2cccc(-c3cccc(COc4nc(OC)c(CN5CC6(CNC(=O)C6)C5)cc4Cl)c3Cl)c2Cl)ccc1CNC[C@@H]1CCC(=O)N1` [Example 430], the pIC50 on PD-1/PD-L1 is 8.69. Moreover, on PD-1/PD-L1 interaction, the pEC50 was 6.57. The AC50 on PD-L1 is 290 nM.
With `Cc1c(COc2nc(OC[C@@H]3CCC(=O)N3)c(CNC[C@@H](O)CC(=O)O)cc2Br)cccc1-c1cccc(COc2nc(OC[C@@H]3CCC(=O)N3)c(CNC[C@@H](O)CC(=O)O)cc2Br)c1C` [Example 328, (3S,3′S)-4,4′-((((((2,2′-dimethyl-[1,1′-biphenyl]-3,3′-diyl)bis(methylene))bis(oxy))bis(5-bromo-2-(((S)-5-oxopyrrolidin-2-yl)methoxy)pyridine-6,3-diyl))bis(methylene))bis(azanediyl))bis(3-hydroxybutanoic acid)], on PD-1/PD-L1, the pIC50 was 9.85. In addition, at PD-1/PD-L1 interaction, the pEC50 is 6.84. Besides, the AC50 on PD-L1 was 241 nM.
As to `COc1nc(-c2cccc(-c3cccc(-c4ccc5c(CNC[C@H]6CCC(=O)N6)cn(C)c5c4)c3Cl)c2Cl)ccc1CNC[C@H]1CCC(=O)N1` [Example 605], the pIC50 at PD-1/PD-L1 was 8.98. In addition, on PD-1/PD-L1 interaction, the pEC50 is 6.89. The AC50 at PD-L1 stood at 352 nM.
As for `COc1cc(-c2cccc(-c3cccc(-c4ccc(CNCCO)c(OC)c4)c3C)c2C)ccc1CNCCO` [Example 627], on PD-1/PD-L1, the pIC50 was 8.61. At PD-1/PD-L1 interaction, the pEC50 was no more than 4.30. The AC50 on PD-L1 was found to be 480 nM.
Regarding `COc1nc(O[C@H]2CCc3c(-c4cccc(-c5ccc(C6=N[C@H](C)CN6)c(OC)n5)c4Cl)cccc32)ccc1CN[C@@](C)(CO)C(=O)O` [Example 778], the pIC50 on PD-1/PD-L1 is 9.95. Further, the pEC50 at PD-1/PD-L1 interaction is 6.67. In addition, the AC50 on PD-L1 was 259 nM.
For the molecule `N#Cc1cncc(COc2nc(OCc3cccc(-c4cccc(-c5ccc6c(c5)C[C@@H](N)C6)c4Cl)c3Cl)c(Br)cc2CNC[C@@H](O)CC(=O)O)c1` [Example 552], the pIC50 at PD-1/PD-L1 was 9.15. In addition, the pEC50 at PD-1/PD-L1 interaction is 6.82. The AC50 on PD-L1 is 74.7 nM.
Turning to `Cc1c(COc2cc(OCc3cncc(C#N)c3)c(CNC[C@@H](O)CC(=O)O)cc2Cl)cccc1-c1cccc(-n2cc(CN3CCCC3)nn2)c1C` [Example 449], the pIC50 at PD-1/PD-L1 was 9.19. Further, the pEC50 on PD-1/PD-L1 interaction is 5.59. For the same molecule, the AC50 on PD-L1 was determined as 1490 nM.
With `Cc1c(COc2cc(OCc3cncc(C#N)c3)c(CNC[C@@H](O)CC(=O)O)cc2Cl)cccc1-c1cccc(-c2ccc(CNC[C@@H](O)CC(=O)O)c(SC(F)F)c2)c1C` [Example 460], the pIC50 at PD-1/PD-L1 was 9.83. Also, on PD-1/PD-L1 interaction, the pEC50 is 6.95. On PD-L1, the AC50 is 302 nM.
`CN1CCCC1c1ccc(-c2cccc(-c3cccc4c3CC[C@@H]4Oc3nc(OCc4cncc(C#N)c4)c(CNC(C)(C)C(=O)O)cc3Cl)c2Cl)cc1` (stereo partly drawn) [Example 672]: the pIC50 at PD-1/PD-L1 was 10.19. Further, the pEC50 on PD-1/PD-L1 interaction is 6.36. Also, the AC50 on PD-L1 is 24.5 nM.
On to `COc1nc(-c2cccc(-c3cccc4c3CC[C@@H]4Oc3nc(OCc4cc(C#N)cc(C#N)c4)c(CNC[C@@H](O)CC(=O)O)cc3Cl)c2Cl)ccc1CNC[C@@H]1CCC(=O)N1` [Example 797], for which the pIC50 on PD-1/PD-L1 was 10.19. Moreover, the pEC50 on PD-1/PD-L1 interaction was 7.52. For the same molecule, the AC50 at PD-L1 was 41.4 nM.
Regarding `C[C@@](CO)(NCc1cc(Cl)c(O[C@H]2CCc3c(-c4cccc(-c5ccc(C6=NCCN6)cc5)c4Cl)cccc32)nc1OCc1cncc(C#N)c1)C(=O)O` [Example 738], the pIC50 on PD-1/PD-L1 is 10.19. Also, the pEC50 on PD-1/PD-L1 interaction was 7.14. Also, the AC50 on PD-L1 was determined as 8.06 nM.
Regarding `COc1nc(O[C@H]2CCc3c(-c4cccc(-c5cc(C)c(CNC[C@@H]6CCC(=O)N6)c(OC)n5)c4Cl)cccc32)c(Cl)cc1CN1CC[C@@](C)(C(=O)O)C1` [Example 488], the pIC50 at PD-1/PD-L1 is 10.19. Besides, at PD-1/PD-L1 interaction, the pEC50 is 7.59. Moreover, the AC50 on PD-L1 is 25.6 nM.
As for `COc1nc(OCc2cccc(-c3cccc(-c4ccc5c(c4)C[C@@H](N)C5)c3Cl)c2Cl)c(Br)cc1CNC[C@H](O)CC(=O)O` [Example 548], the pIC50 at PD-1/PD-L1 was 9.17. Moreover, the pEC50 at PD-1/PD-L1 interaction was 6.71. At PD-L1, the AC50 is 74.6 nM.
The matching figures for `Cc1c(COc2cc(OCc3cncc(C#N)c3)c(CN3CC[C@@H](O)C3)cc2Cl)cccc1-c1cccc(-c2ccc3c(c2)CCC3N2CC[C@@H](C(=O)O)C2)c1C` (stereo partly drawn) [Example 370, (3R)-1-(5-(3′-((2-chloro-5-((5-cyanopyridin-3-yl)methoxy)-4-(((R)-3-hydroxypyrrolidin-1-yl)methyl)phenoxy)methyl)-2,2′-dimethyl-[1,1′-biphenyl]-3-yl)-2,3-dihydro-1H-inden-1-yl)pyrrolidine-3-carboxylic acid]: 9.86, 6.24 and 81.4 nM.
In the case of `Cc1c(COc2cc(OCc3cncc(C#N)c3)c(CN[C@@](C)(CO)C(=O)O)cc2Cl)cccc1-c1cccc(-c2ccc3c(c2)ncc(=O)n3CCN(C)C)c1C` [Example 469], at PD-1/PD-L1, the negative-log IC50 (pIC50) is 10.19. Further, the pEC50 on PD-1/PD-L1 interaction is 6.90. Besides, on PD-L1, the half-maximal activity concentration (AC50) amounted to 73.5 nM.
Regarding `Cc1c(COc2cc(OCc3cncc(C#N)c3)c(CN3C[C@@H](O)C[C@H]3C(=O)O)cc2Cl)cccc1-c1cccc(-c2ccc3c(c2)CC[C@H]3N(C)C)c1C` [Example 377, (2S,4S)-1-(5-chloro-2-((5-cyanopyridin-3-yl)methoxy)-4-((3′-((R)-1-(dimethylamino)-2,3-dihydro-1H-inden-5-yl)-2,2′-dimethyl-[1,1′-biphenyl]-3-yl)methoxy)benzyl)-4-hydroxypyrrolidine-2-carboxylic acid], the pIC50 at PD-1/PD-L1 is 9.75. Further, the pEC50 on PD-1/PD-L1 interaction is 6.58. Besides, the AC50 at PD-L1 worked out at 231 nM.

The pIC50 is −log10 of the IC50, conventionally taken in molar units. As a reminder, the pEC50 is the EC50 on a negative log10 scale, so that one unit is a factor of ten. In general, AC50 refers to the concentration at which the activity in the assay is half-maximal.

The values are drawn from patent US12590062B2, “PD-1/PD-L1 inhibitors” (Gilead Sciences, Inc., priority 2017, dated 2026).
